Tested on: Mac-1 and LFA-1-mediated neutrophil binding to immobilized ICAM-1
Assay: Neutrophil (Mac-1 and LFA-1)/ICAM-1 cell-based screening assay
Conditions: human neutrophils
Description: Both Mac-1 and LFA-1 are expressed on the cell surface of neutrophils. The ability of antagonists to inhibit Mac-1 and LFA-1-mediated neutrophil binding to immobilized ICAM-1 was quantitated by a cell based assay. Typically, fusion protein consisting of the entire extracellular domain of human ICAM-1 and the Fc domain of human IgG (5dICAM-Ig) was coated onto 96 well microtiter plates (1 μg in 100 μL TBS) overnight at 4° C. The plates were then blocked with 150 μL of 10% PVP in TBS for 1 h at 37° C. Plates were washed 3 times (150 μL each) with TBS. Human neutrophils were purified from whole blood from healthy volunteers using LSM (ICN). Cells (8×10^6/mL) were fluorescently labeled with 6-carboxyfluorescein (100 μg/mL) for 40 min in IMDM/1 mM MgCl2/1.2 mM CaCl2 as described in Example 287. Cells (8×10^6/mL) were stimulated with f-Met-Leu-Phe (10 μM) for 5 min at room temperature just prior to being used in the assay, and diluted to 2×10^6 cells/mL with RPMI/0.05% BSA/0.2 mM MnCl2. Stock solutions (10 mM) of test compounds were diluted to 2.5 mM with DMSO. A series of 1:4 dilutions in DMSO were performed to achieve a concentration range of 38.2 nM-2.5 mM. Each sample was further diluted 50-fold with RPMI/0.05% BSA/0.2 mM MnCl2. Equal volumes of labeled cells were then added to assay tubes containing diluted compound. Final concentrations of compound tested in the assay ranged from 0.38 nM-25 μM with a cell concentration of 1×10^6 per mL. Cells were incubated for 10 min at 37° C. with gentle shaking, then dispensed (100 μL per well) onto ICAM-1 coated plates and incubated for 30 min at 37° C./5% CO2. Unbound cells were washed and plates were read on a Cytofluor™ 2300 (Millipore) as described in Example 384.

| IC50 [nM] | SMILES |
| --- | --- |
| 63 | COc1cccc(C(=O)NC[C@H](NC(=O)c2ccc(C(=O)NCc3cccc(O)c3)cc2Cl)C(=O)O)c1 [Example 76, N-[2-chloro-4-[[[(3-hydroxyphenyl)methyl]amino]-carbonyl]benzoyl]-3-(3-methoxybenzoylamino)-L-alanine] |
| 94 | CC1(C(=O)NC[C@H](NC(=O)c2ccc(C(=O)NCc3cccc(O)c3)cc2Cl)C(=O)O)CCCCC1 [Example 105] |
| 37 | Nc1cccc(C(=O)NC[C@H](NC(=O)c2ccc(C(=O)NCc3cccc(O)c3)cc2Cl)C(=O)O)c1 [Example 118] |
| 220 | NS(=O)(=O)c1ccc(C(=O)NC[C@H](NC(=O)c2ccc(C(=O)NCc3cccc(O)c3)cc2Cl)C(=O)O)cc1 [Example 119] |
| 21 | O=C(NCc1cccc(O)c1)c1ccc(C(=O)N[C@@H](CNC(=O)c2cccc(Cl)c2)C(=O)O)c(Cl)c1 [Example 123] |
| 27 | O=C(NCc1cccc(O)c1)c1ccc(C(=O)N[C@@H](CNC(=O)c2cccc(F)c2)C(=O)O)c(Cl)c1 [Example 131] |
| 4.9 | O=C(NCc1cccc(O)c1)c1ccc(C(=O)N[C@@H](CNC(=O)c2cccc(O)c2)C(=O)O)c(Cl)c1 [Example 132] |
| 31 | Cc1cccc(C(=O)NC[C@H](NC(=O)c2ccc(C(=O)NCc3cccc(O)c3)cc2Cl)C(=O)O)c1 [Example 138] |
| 65 | O=C(NCc1cccc(O)c1)c1ccc(C(=O)N[C@@H](CNC(=O)c2ccc(Br)s2)C(=O)O)c(Cl)c1 [Example 155] |
| 23 | Cc1ccc(C(=O)NC[C@H](NC(=O)c2ccc(C(=O)NCc3cccc(O)c3)cc2Cl)C(=O)O)s1 [Example 160] |
| 44 | O=C(NCc1cccc(O)c1)c1ccc(C(=O)N[C@@H](CNC(=O)c2ccsc2)C(=O)O)c(Cl)c1 [Example 161] |
| 9.7 | C[C@@H](NC(=O)c1cc(Cl)c(C(=O)N[C@@H](CNC(=O)c2cccs2)C(=O)O)c(Cl)c1)c1cccc2ccccc12 [Example 346, N-[2,6-dichloro-4-[[[(1R)-1-(1-naphthalenyl)ethyl]amino]carbonyl]benzoyl]-3-[(thiophene-2-carbonyl)amino]-L-alanine] |
| 16.1 | C[C@@H](NC(=O)c1cc(Cl)c(C(=O)N[C@@H](CNC(=O)c2ccccc2)C(=O)O)c(Cl)c1)c1cccc2ccccc12 [Example 347] |
| 4.7 | O=C(NCc1cccc(O)c1)c1cc(Cl)c(C(=O)N[C@@H](CNC(=O)c2cccc(F)c2)C(=O)O)c(Cl)c1 [Example 349] |
| 0.7 | O=C(NCc1cccc(O)c1)c1cc(Cl)c(C(=O)N[C@@H](CNC(=O)c2cccc(O)c2)C(=O)O)c(Cl)c1 [Example 350] |
| 2.7 | COc1ccc(C(=O)NC[C@H](NC(=O)c2c(Cl)cc(C(=O)NCc3cccc(O)c3)cc2Cl)C(=O)O)cc1O [Example 351] |
| 18.6 | O=C(NCc1cccc(O)c1)c1cc(Cl)c(C(=O)N[C@@H](CNC(=O)c2sccc2Br)C(=O)O)c(Cl)c1 [Example 353] |
| 4.7 | O=C(NCc1cccc(O)c1)c1cc(Cl)c(C(=O)N[C@@H](CNC(=O)c2ccc(Br)s2)C(=O)O)c(Cl)c1 [Example 354] |
| 4.3 | Cc1ccc(C(=O)NC[C@H](NC(=O)c2c(Cl)cc(C(=O)NCc3cccc(O)c3)cc2Cl)C(=O)O)s1 [Example 358] |
